Measurements from US20230406885A1, “CYCLIC PEPTIDES FOR TRAPPING INTERLEUKIN-1 BETA” (MERCK SHARP & DOHME LLC, priority 2022, published 2023).
*1 amine or outer side, *2 acyl side, *3 side chain or, on linkers, in order; H or OH if unused. Where a SMILES comes first, the peptide text is derived from it. [ ]: non-standard residue; d: D form. Phe(4-(4-Ac-piperazinyl)) = CC(=O)N1CCN(c2ccc(C[C@H](N)C(=O)O)cc2)CC1; Trp(4-Cl)(βS-Me) = C[C@@H](c1c[nH]c2cccc(Cl)c12)[C@H](N)C(=O)O; Trp(βS-Me,4-F) = C[C@@H](c1c[nH]c2cccc(F)c12)[C@H](N)C(=O)O; Bip(4'-COOH) = N[C@@H](Cc1ccc(-c2ccc(C(=O)O)cc2)cc1)C(=O)O; Phe(3-CH2NH2) = O=C([C@H](Cc1cccc(CN[*:3])c1)N[*:1])[*:2]; 1Nal(3S-Me) = C[C@@H](c1cccc2ccccc12)[C@H](N)C(=O)O; Ala(indolin-1-yl) = N[C@@H](CN1CCc2ccccc21)C(=O)O; Phe(4-COOH) = N[C@@H](Cc1ccc(C(=O)O)cc1)C(=O)O; h3Pal(5-CN) = N#Cc1cncc(CC[C@H](N)C(=O)O)c1; Phe(3-NH2) = Nc1cccc(C[C@H](N)C(=O)O)c1; Pro(4R-NH2) = N[C@H]1CN[C@H](C(=O)O)C1; X7 = O=C([C@H](CCN1CCOCC1)N[*:1])[*:2]; 1Nal = N[C@@H](Cc1cccc2ccccc12)C(=O)O; AEF = NCCOc1ccc(C[C@H](N)C(=O)O)cc1; hTyr = N[C@@H](CCc1ccc(O)cc1)C(=O)O; X9 = CCCC[C@](C)(N[*:1])C(=O)[*:2]; hPhe = N[C@@H](CCc1ccccc1)C(=O)O; 4Pal = N[C@@H](Cc1ccncc1)C(=O)O; dDab = NCC[C@@H](N)C(=O)O; dNMeA = CN[C@H](C)C(=O)O; Dap = NC[C@H](N)C(=O)O; Aib = CC(C)(N)C(=O)O

Each compound was assayed against T1, Recombinant human IL-1β (Homo sapiens, UniProt P01584) (assay: IL-6 assay in MRC5 cells: inhibition of IL-1β induced IL-6 secretion (AlphaLISA)). Settings: inhibition of IL-1β induced IL-6 secretion in MRC5 cells; IL-1β pre-incubated 1 hour with compound; read-out: MRC5 IC50.
T1 construct: purchased BioLegend 579404
T1 sequence (P01584 117-269): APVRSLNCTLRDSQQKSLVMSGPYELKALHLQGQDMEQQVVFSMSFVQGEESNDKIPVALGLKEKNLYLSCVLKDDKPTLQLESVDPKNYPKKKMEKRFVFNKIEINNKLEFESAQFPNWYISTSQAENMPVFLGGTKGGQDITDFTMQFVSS
Format: cell-based
How it was run: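 IL-1β at 2×EC80 in seeding medium (EMEM, 0.025% BSA) preincubated 1 h at ambient temperature with compound, then 3000 MRC5 cells/well added and incubated overnight at 37 °C, 5% CO2. IL-6 in conditioned medium quantified by AlphaLISA; IC50 from 4-parameter logistic fit.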

| SMILES | IC50 |
| --- | --- |
| C[C@@H]1C(=O)NCC(=O)N[C@@H](Cc2ccc(-c3ccc(C(=O)O)cc3)cc2)C(=O)N[C@@H](Cc2cccc(N)c2)C(=O)N[C@@H](CO)C(=O)N[C@H](C)C(=O)N[C@@H](CCc2ccc(O)cc2)C(=O)N[C@@H](Cc2ccc(-c3ccc(C(=O)O)cc3)cc2)C(=O)N[C@@H](Cc2c[nH]c3ccccc23)C(=O)N[C@@H](Cc2ccc(C(=O)O)cc2)C(=O)NCC(=O)N2C[C@H](N)C[C@H]2C(=O)N[C@@H]([C@@H](C)c2c[nH]c3cccc(Cl)c23)C(=O)N[C@@H](CC(=O)O)C(=O)N1C [Example 50] (cyclo([Bip(4'-COOH)]W[Phe(4-COOH)]G[Pro(4R-NH2)][Trp(4-Cl)(βS-Me)]D[dNMeA]G[Bip(4'-COOH)][Phe(3-NH2)]S[dA][hTyr])) | 0.52 nM |
| CC(C)C[C@@H]1NC(=O)[C@H](Cc2cccc(CN)c2)NC(=O)[C@H](Cc2ccc(-c3ccc(C(=O)O)cc3)cc2)NC(=O)CNC(=O)[C@@H](C)N(C)C(=O)[C@H](CC(=O)O)NC(=O)[C@H]([C@@H](C)c2c[nH]c3cccc(F)c23)NC(=O)[C@@H]2C[C@@H](N)CN2C(=O)CNC(=O)[C@H](Cc2ccc(C(=O)O)cc2)NC(=O)[C@H](Cc2c[nH]c3ccccc23)NC(=O)[C@H](Cc2ccc(-c3ccc(C(=O)O)cc3)cc2)NC(=O)[C@H](CCc2ccc(O)cc2)NC(=O)[C@@H](C)NC1=O [Example 73] (cyclo([Bip(4'-COOH)]W[Phe(4-COOH)]G[Pro(4R-NH2)][Trp(βS-Me,4-F)]D[dNMeA]G[Bip(4'-COOH)][Phe(3-CH2NH2)]L[dA][hTyr])) | 0.0509 nM |
| C[C@@H]1C(=O)NCC(=O)N[C@@H](Cc2ccc(-c3ccc(C(=O)O)cc3)cc2)C(=O)N[C@@H](Cc2ccncc2)C(=O)N[C@@H](CN)C(=O)N[C@H](C)C(=O)N[C@@H](CCc2cncc(C#N)c2)C(=O)N[C@@H](Cc2ccc(-c3ccc(C(=O)O)cc3)cc2)C(=O)N[C@@H](Cc2c[nH]c3ccccc23)C(=O)N[C@@H](Cc2ccc(C(=O)O)cc2)C(=O)NCC(=O)N2C[C@H](N)C[C@H]2C(=O)N[C@@H]([C@@H](C)c2cccc3ccccc23)C(=O)N[C@@H](CC(=O)O)C(=O)N1C [Example 21] (cyclo([Bip(4'-COOH)]W[Phe(4-COOH)]G[Pro(4R-NH2)][1Nal(3S-Me)]D[dNMeA]G[Bip(4'-COOH)][4Pal][Dap][dA][h3Pal(5-CN)])) | 0.0234 nM |

More lines, now with the values ahead:

| IC50 | SMILES |
| --- | --- |
| 0.0234 nM | CC(=O)NCCOc1ccc(C[C@@H]2NC(=O)[C@H](CCc3cncc(C#N)c3)NC(=O)[C@@H](CCN)NC(=O)CNC(=O)[C@H](CN3CCc4ccccc43)NC(=O)[C@H](Cc3ccc(-c4ccc(C(=O)O)cc4)cc3)NC(=O)CNC(=O)[C@@H](C)N(C)C(=O)[C@H](CC(=O)O)NC(=O)[C@H]([C@@H](C)c3cccc4ccccc34)NC(=O)[C@@H]3C[C@@H](N)CN3C(=O)CNC(=O)[C@H](Cc3ccc(C(=O)O)cc3)NC(=O)[C@H](Cc3c[nH]c4ccccc34)NC2=O)cc1 [Example 91] (cyclo([AEF](Ac)W[Phe(4-COOH)]G[Pro(4R-NH2)][1Nal(3S-Me)]D[dNMeA]G[Bip(4'-COOH)][Ala(indolin-1-yl)]G[dDab][h3Pal(5-CN)])) |
| 0.0755 nM | C[C@@H]1C(=O)NCC(=O)N[C@@H](Cc2ccc(-c3ccc(C(=O)O)cc3)cc2)C(=O)N[C@@H](Cc2cccc3ccccc23)C(=O)N[C@@H](CN)C(=O)NC(C)(C)C(=O)N[C@@H](CCc2cncc(C#N)c2)C(=O)N[C@@H](Cc2ccc(-c3ccc(C(=O)O)cc3)cc2)C(=O)N[C@@H](Cc2c[nH]c3ccccc23)C(=O)N[C@@H](Cc2ccc(C(=O)O)cc2)C(=O)NCC(=O)N2C[C@H](N)C[C@H]2C(=O)N[C@@H]([C@@H](C)c2c[nH]c3cccc(Cl)c23)C(=O)N[C@@H](CC(=O)O)C(=O)N1C [Example 34] (cyclo([Bip(4'-COOH)]W[Phe(4-COOH)]G[Pro(4R-NH2)][Trp(4-Cl)(βS-Me)]D[dNMeA]G[Bip(4'-COOH)][1Nal][Dap][Aib][h3Pal(5-CN)])) |

Same assay, conditions: inhibition of IL-1β induced IL-6 secretion in MRC5 cells; read-out: MRC5 IC50

| SMILES | IC50 |
| --- | --- |
| CCCC[C@]1(C)NC(=O)[C@@H](CCN)NC(=O)CNC(=O)[C@H](Cc2ccncc2)NC(=O)[C@H](Cc2ccc(-c3ccc(C(=O)O)cc3)cc2)NC(=O)CNC(=O)[C@@H](C)N(C)C(=O)[C@H](CC(=O)O)NC(=O)[C@H]([C@@H](C)c2cccc3ccccc23)NC(=O)[C@@H]2C[C@@H](N)CN2C(=O)CNC(=O)[C@H](Cc2ccc(C(=O)O)cc2)NC(=O)[C@H](Cc2c[nH]c3ccccc23)NC(=O)[C@H](Cc2ccc(N3CCN(C(C)=O)CC3)cc2)NC1=O [Example 200] (cyclo([Phe(4-(4-Ac-piperazinyl))]W[Phe(4-COOH)]G[Pro(4R-NH2)][1Nal(3S-Me)]D[dNMeA]G[Bip(4'-COOH)][4Pal]G[dDab][X9])) | 0.034 nM |
| CC(=O)NCCOc1ccc(C[C@@H]2NC(=O)[C@H](Cc3ccc(OCCNC(C)=O)cc3)NC(=O)[C@@H](C)NC(=O)[C@H](CO)NC(=O)[C@H](Cc3c[nH]c4ccccc34)NC(=O)[C@H](Cc3ccc(-c4ccc(C(=O)O)cc4)cc3)NC(=O)CNC(=O)[C@@H](C)N(C)C(=O)[C@H](CC(=O)O)NC(=O)[C@H]([C@@H](C)c3c[nH]c4cccc(F)c34)NC(=O)[C@@H]3C[C@@H](N)CN3C(=O)CNC(=O)[C@H](Cc3ccc(C(=O)O)cc3)NC(=O)[C@H](Cc3c[nH]c4ccccc34)NC2=O)cc1 [Example 173] (cyclo([AEF](Ac)W[Phe(4-COOH)]G[Pro(4R-NH2)][Trp(βS-Me,4-F)]D[dNMeA]G[Bip(4'-COOH)]WS[dA][AEF](Ac))) | 0.959 nM |
| CC(=O)NCCOc1ccc(C[C@@H]2NC(=O)[C@H](CCc3ccc(O)cc3)NC(=O)[C@@H](C)NC(=O)[C@H](CCN3CCOCC3)NC(=O)[C@H](Cc3c[nH]c4ccccc34)NC(=O)[C@H](Cc3ccc(-c4ccc(C(=O)O)cc4)cc3)NC(=O)CNC(=O)[C@@H](C)N(C)C(=O)[C@H](CC(=O)O)NC(=O)[C@H]([C@@H](C)c3c[nH]c4cccc(Cl)c34)NC(=O)[C@@H]3C[C@@H](N)CN3C(=O)CNC(=O)[C@H](Cc3ccc(C(=O)O)cc3)NC(=O)[C@H](Cc3c[nH]c4ccccc34)NC2=O)cc1 [Example 141] (cyclo([AEF](Ac)W[Phe(4-COOH)]G[Pro(4R-NH2)][Trp(4-Cl)(βS-Me)]D[dNMeA]G[Bip(4'-COOH)]W[X7][dA][hTyr])) | 0.177 nM |

Next, values leading:

| IC50 | SMILES |
| --- | --- |
| 0.114 nM | CC(=O)NCCOc1ccc(C[C@@H]2NC(=O)[C@H](CCc3cncc(C#N)c3)NC(=O)C(C)(C)NC(=O)[C@H](CN)NC(=O)[C@H](Cc3cccc4ccccc34)NC(=O)[C@H](Cc3ccc(-c4ccc(C(=O)O)cc4)cc3)NC(=O)CNC(=O)[C@@H](C)N(C)C(=O)[C@H](CC(=O)O)NC(=O)[C@H]([C@@H](C)c3c[nH]c4cccc(Cl)c34)NC(=O)[C@@H]3C[C@@H](N)CN3C(=O)CNC(=O)[C@H](Cc3ccc(C(=O)O)cc3)NC(=O)[C@H](Cc3c[nH]c4ccccc34)NC2=O)cc1 [Example 130] (cyclo([AEF](Ac)W[Phe(4-COOH)]G[Pro(4R-NH2)][Trp(4-Cl)(βS-Me)]D[dNMeA]G[Bip(4'-COOH)][1Nal][Dap][Aib][h3Pal(5-CN)])) |
| 0.22 nM | CC(=O)NCCOc1ccc(C[C@@H]2NC(=O)[C@H](CCc3ccc(O)cc3)NC(=O)[C@@H](C)NC(=O)[C@H](CO)NC(=O)[C@H](Cc3cccc4ccccc34)NC(=O)[C@H](Cc3ccc(-c4ccc(C(=O)O)cc4)cc3)NC(=O)CNC(=O)[C@@H](C)N(C)C(=O)[C@H](CC(=O)O)NC(=O)[C@H]([C@@H](C)c3c[nH]c4cccc(F)c34)NC(=O)[C@@H]3C[C@@H](N)CN3C(=O)CNC(=O)[C@H](Cc3ccc(C(=O)O)cc3)NC(=O)[C@H](Cc3c[nH]c4ccccc34)NC2=O)cc1 [Example 155] (cyclo([AEF](Ac)W[Phe(4-COOH)]G[Pro(4R-NH2)][Trp(βS-Me,4-F)]D[dNMeA]G[Bip(4'-COOH)][1Nal]S[dA][hTyr])) |
| 0.81 nM | CC(=O)NCCOc1ccc(C[C@@H]2NC(=O)[C@H](CCc3ccc(O)cc3)NC(=O)[C@@H](CCN)NC(=O)[C@H](CC(C)C)NC(=O)[C@H](Cc3c[nH]c4ccccc34)NC(=O)[C@H](Cc3ccc(-c4ccc(C(=O)O)cc4)cc3)NC(=O)CNC(=O)[C@@H](C)N(C)C(=O)[C@H](CC(=O)O)NC(=O)[C@H]([C@@H](C)c3c[nH]c4cccc(Cl)c34)NC(=O)[C@@H]3C[C@@H](N)CN3C(=O)CNC(=O)[C@H](Cc3ccc(C(=O)O)cc3)NC(=O)[C@H](Cc3c[nH]c4ccccc34)NC2=O)cc1 [Example 149] (cyclo([AEF](Ac)W[Phe(4-COOH)]G[Pro(4R-NH2)][Trp(4-Cl)(βS-Me)]D[dNMeA]G[Bip(4'-COOH)]WL[dDab][hTyr])) |
| 0.0633 nM | CC(=O)NCCOc1ccc(C[C@@H]2NC(=O)[C@H](CCc3ccccc3)NC(=O)[C@@H](C)NC(=O)[C@H](CO)NC(=O)[C@H](Cc3c[nH]c4ccccc34)NC(=O)[C@H](Cc3ccc(-c4ccc(C(=O)O)cc4)cc3)NC(=O)CNC(=O)[C@@H](C)N(C)C(=O)[C@H](CC(=O)O)NC(=O)[C@H]([C@@H](C)c3c[nH]c4cccc(Cl)c34)NC(=O)[C@@H]3C[C@@H](N)CN3C(=O)CNC(=O)[C@H](Cc3ccc(C(=O)O)cc3)NC(=O)[C@H](Cc3c[nH]c4ccccc34)NC2=O)cc1 [Example 150] (cyclo([AEF](Ac)W[Phe(4-COOH)]G[Pro(4R-NH2)][Trp(4-Cl)(βS-Me)]D[dNMeA]G[Bip(4'-COOH)]WS[dA][hPhe])) |
| 0.0749 nM | CC(=O)NCCOc1ccc(C[C@@H]2NC(=O)[C@H](CCc3ccccc3)NC(=O)[C@@H](C)NC(=O)[C@H](CN)NC(=O)[C@H](Cc3c[nH]c4ccccc34)NC(=O)[C@H](Cc3ccc(-c4ccc(C(=O)O)cc4)cc3)NC(=O)CNC(=O)[C@@H](C)N(C)C(=O)[C@H](CC(=O)O)NC(=O)[C@H]([C@@H](C)c3c[nH]c4cccc(Cl)c34)NC(=O)[C@@H]3C[C@@H](N)CN3C(=O)CNC(=O)[C@H](Cc3ccc(C(=O)O)cc3)NC(=O)[C@H](Cc3c[nH]c4ccccc34)NC2=O)cc1 [Example 144] (cyclo([AEF](Ac)W[Phe(4-COOH)]G[Pro(4R-NH2)][Trp(4-Cl)(βS-Me)]D[dNMeA]G[Bip(4'-COOH)]W[Dap][dA][hPhe])) |
